This assay has as its system post PTCA vessels. Description: Clinical test: restenosis after elective PTCA in patients with angina pectoris (coronary angiography, video-densitometry). The assay is classed as in vivo. The method, then: 29 patients suffering from angina pectoris who received elective PTCA (43 sites ) orally took 2-phenyl-1,2-benzoisoselenazol-3(2H )-one (hereinafterreferred to as compound A) after meal with a daily dose of 200 mg, twice a day, 100 mg for each time, starting from three days prior to the PTCA operation over 3 months after operation (treated group ). […] The stenosed degree was measured by video-densitometry (Reiber JHC et al., Circulation 1985; 71:280-288), and inhibition of restenosis was evaluated on the basis of the findings. […]
In both of the treated and control groups, calcium antagonists such as nifedipine and diltiazem, and antiarteriosclerotic agents such as elastase were concurrently administered as required. As a result, there was no significant difference according to the .chi.^2 test between the two groups with regard to the use of concomitant compounds and other patient characteristics including the age, the site of the lesion, etc.

Take `O=c1c2ccccc2[se]n1-c1ccccc1` [compound A, 2-phenyl-1,2-benzoisoselenazol-3(2H)-one]: the “onset rate of restenosis based on the number of patients” value (6 months after operation, treated group, 29 patients, control 38.2%) turned out to be 18.6%. In addition, the “inhibition of restenosis in the location of operation” value (compared to the control group, Table 2) was “remarkable inhibition of restenosis”. Further, for the setting “treated group, 43 sites, 100 mg twice a day orally from three days prior to PTCA, control 87 +/- 11”, the “Stenosed Degree Before PTCA” value was 89 +/- 10. Also, where the note is “treated group, 43 sites, 100 mg twice a day orally, control 78 +/- 39, *P<0.05 vs Placebo, Chi square analysis”, the “Stenosed Degree 3 Months after PTCA” value was 54 +/- 31. Besides, where the note is “treated group, 43 sites, immediately after PTCA, 100 mg twice a day orally, control 32 +/- 23”, the “Stenosed Degree After PTCA” value was 35 +/- 28.

Source of the values: patent US5480888A, “Inhibitor for restenosis after percutaneous coronary arterioplasty” (Daiichi Pharmaceutical Co., Ltd., priority 1992, dated 1996).
